Test results published in patent US6620839B2, “1,3-disubstituted and 1,3,3-trisubstituted pyrrolidines as histamine-3 receptor ligands and their therapeutic applications” (Abbott Laboratories, priority 2000, dated 2003).

target: T1, histamine-3 receptor (Rattus norvegicus, UniProt Q9QYN8); experiment: Histamine-3 receptor binding, (3H)-N-α-methylhistamine displacement in rat cortical membranes; details: male Sprague-Dawley rat brain cortical membranes; (3H)-N-α-methylhistamine ~0.6 nM; 30 minutes at 25° C.; Cheng-Prusoff
T1 construct: from tissue; host or cells: male Sprague-Dawley rat brain cortex membranes
Outline: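 Male Sprague-Dawley rat cortical membranes incubated 30 min at 25 °C with compound dilutions and [3H]-N-α-methylhistamine. Nonspecific binding defined with 3 μM thioperamide. Filtration and scintillation counting used; Ki from Hill transformation and Cheng-Prusoff equation.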

T1 sequence (Q9QYN8 whole entry): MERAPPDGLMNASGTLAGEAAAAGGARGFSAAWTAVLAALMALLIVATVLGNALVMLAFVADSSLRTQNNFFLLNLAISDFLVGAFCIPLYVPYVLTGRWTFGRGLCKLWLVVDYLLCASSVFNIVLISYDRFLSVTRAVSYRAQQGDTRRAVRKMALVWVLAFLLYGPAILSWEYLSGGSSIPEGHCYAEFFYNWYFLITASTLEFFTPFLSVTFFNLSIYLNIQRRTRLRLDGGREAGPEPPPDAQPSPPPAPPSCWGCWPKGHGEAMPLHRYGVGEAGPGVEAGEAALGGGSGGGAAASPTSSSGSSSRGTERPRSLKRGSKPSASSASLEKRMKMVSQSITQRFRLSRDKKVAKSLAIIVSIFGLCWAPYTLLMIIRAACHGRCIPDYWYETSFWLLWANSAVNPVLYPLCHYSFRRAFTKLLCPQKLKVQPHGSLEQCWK

Compound | Ki [nM]
CC(C)c1ccc(S(=O)(=O)N(C)[C@@H]2CCN(CCCOc3ccc(-c4ccc(C#N)cc4)cc3)C2)cc1 [Example 127, N-((3R)-1-{3-[(4′-cyano[1,1′-biphenyl]-4-yl)oxy]propyl}pyrrolidinyl)-4-isoproply-N-methylbenzensulfonamide] | 16
CN([C@@H]1CCN(CCCOc2ccc(-c3ccc(C#N)cc3)cc2)C1)S(=O)(=O)c1ccc(S(C)(=O)=O)cc1 [Example 128] | 2.3
CC(=O)N[C@@H]1CCN(CCCOc2ccc(-c3ccc(C#N)cc3)cc2)C1 [Example 130] | 31
CC(C)(C)CC(=O)N[C@@H]1CCN(CCCOc2ccc(-c3ccc(C#N)cc3)cc2)C1 [Example 131] | 51
C=CCOC(=O)N[C@@H]1CCN(CCCOc2ccc(-c3ccc(C#N)cc3)cc2)C1 [Example 132, allyl (3R)-1-{3-[(4′-cyano[1,1′-biphenyl]-4-yl)oxy]propyl}pyrrolidinylcarbamate] | 74
COC(=O)N[C@@H]1CCN(CCCOc2ccc(-c3ccc(C#N)cc3)cc2)C1 [Example 133, methyl (3R)-1-{3-[(4′-cyano[1,1′-biphenyl]-4-yl)oxy]propyl}pyrrolidinylcarbamate] | 57
CCC(C)(C)OC(=O)N[C@@H]1CCN(CCCOc2ccc(-c3ccc(C#N)cc3)cc2)C1 [Example 134, tert-pentyl (3R)-1-{3-[(4′-cyano[1,1′-biphenyl]-4-yl)oxy]propyl}pyrrolidinylcarbamate] | 168
CN(C)C(=O)N[C@@H]1CCN(CCCOc2ccc(-c3ccc(C#N)cc3)cc2)C1 [Example 135] | 132
N#Cc1ccc(-c2ccc(OCCCN3CC[C@@H](NC(=O)N4CCCC4)C3)cc2)cc1 [Example 136] | 215
CC(C)(C)NC(=O)N[C@@H]1CCN(CCCOc2ccc(-c3ccc(C#N)cc3)cc2)C1 [Example 137, N-(tert-butyl)-N′-((3R)-1-{3-[(4′-cyano[1,1′-biphenyl]-4-yl)oxy]propyl}pyrrolidinyl)urea] | 196
N#Cc1ccc(-c2ccc(OCCCN3CC[C@@H](NC(=O)N4CCOCC4)C3)cc2)cc1 [Example 138] | 118
N#Cc1ccc(-c2ccc(OCCCN3CC[C@@H](NC(=O)c4ccc(F)cc4)C3)cc2)cc1 [Example 139] | 288
N#Cc1ccc(C(=O)N[C@@H]2CCN(CCCOc3ccc(-c4ccc(C#N)cc4)cc3)C2)cc1 [Example 140, 4-cyano-N-((3R)-1-{3-[(4′-cyano[1,1′-biphenyl]-4-yl)oxy]propyl}pyrrolidinyl)benzamide] | 220
N#Cc1ccc(-c2ccc(OCCCN3CC[C@@H](NC(=O)c4cccnc4)C3)cc2)cc1 [Example 141] | 342
N#Cc1ccc(-c2ccc(OCCCN3CC[C@@H](NC(=O)c4ccco4)C3)cc2)cc1 [Example 142] | 321
N#Cc1ccc(-c2ccc(OCCCN3CC[C@@H](NC(=O)c4csc(-c5cccnc5)n4)C3)cc2)cc1 [Example 143] | 85
CC(C)S(=O)(=O)N[C@@H]1CCN(CCCOc2ccc(-c3ccc(C#N)cc3)cc2)C1 [Example 144] | 21
CN(C)S(=O)(=O)N[C@@H]1CCN(CCCOc2ccc(-c3ccc(C#N)cc3)cc2)C1 [Example 145] | 9.6

Compound | Ki [nM]
CS(=O)(=O)c1ccc(S(=O)(=O)N[C@@H]2CCN(CCCOc3ccc(-c4ccc(C#N)cc4)cc3)C2)cc1 [Example 146] | 3
CC(C)(C)CC(=O)N(C(=O)CC(C)(C)C)[C@@H]1CCN(CCCOc2ccc(-c3ccc(C#N)cc3)cc2)C1 [Example 147] | 209
CN(C)C(=O)N(C(=O)N(C)C)[C@@H]1CCN(CCCOc2ccc(-c3ccc(C#N)cc3)cc2)C1 [Example 148] | 291
N#Cc1ccc(-c2ccc(OCCCN3CC[C@@H](N(C(=O)N4CCCC4)C(=O)N4CCCC4)C3)cc2)cc1 [Example 149] | 329
N#Cc1ccc(-c2ccc(OCCCN3CC[C@@H](N(C(=O)N4CCOCC4)C(=O)N4CCOCC4)C3)cc2)cc1 [Example 150] | 267
Cc1cc(-c2ccc(OCCCN3CC[C@@H](N(C)C)C3)cc2)ccc1C#N [Example 164, 4′-{3-[(3R)-3-(dimethylamino)-1-pyrrolidinyl]propoxy}-3-methyl-1,1′-biphenyl-4-carbonitrile] | 48
Cc1cc(C#N)ccc1-c1ccc(OCCCN2CC[C@@H](N(C)C)C2)cc1 [Example 165, 4′-{3-[(3R)-3-(dimethylamino)-1-pyrrolidinyl]propoxy}-2-methyl-1,1′-biphenyl-4-carbonitrile] | 17
CN(C)[C@@H]1CCN(CCCOc2ccc(-c3ccc(C#N)c(F)c3)cc2)C1 [Example 166, 4′-{3-[(3R)-3-(dimethylamino)-1-pyrrolidinyl}propoxy]-3-fluoro-1,1′-biphenyl-4-carbonitrile] | 73
CN(C)[C@@H]1CCN(CCCOc2ccc(-c3ccc(C#N)cc3)cc2F)C1 [Example 167, 4′-{3-[(3R)-3-(dimethylamino)-1-pyrrolidinyl]propoxy}-3′-fluoro-1,1′-biphenyl-4-carbonitrile] | 9
Cc1cc(-c2ccc(C#N)cc2)ccc1OCCCN1CC[C@@H](N(C)C)C1 [Example 168, 4′-{3-[(3R)-3-(dimethylamino)-1-pyrrolidinyl]propoxy}-3′-methyl-1,1′-biphenyl-4-carbonitrile] | 74
CN(C)[C@@H]1CCN(CCCOc2ccc(-c3ccc(C#N)cc3)cc2I)C1 [Example 169, 4′-{3-[(3R)-3-(dimethylamino)-1-pyrrolidinyl]propoxy}-3 ′-iodo-1,1′-biphenyl-4-carbonitrile] | 206
Cc1cc(OCCCN2CC[C@@H](N(C)C)C2)ccc1-c1ccc(C#N)cc1 [Example 170, 4′-{3-[(3R)-3-(dimethylamino)-1-pyrrolidinyl]propoxy}-2′-methyl-1,1′-biphenyl-4-carbonitrile] | 51
CN(C)[C@@H]1CCN(CCCOc2ccc(-c3ccc(C#N)cc3)cc2Cl)C1 [Example 171, 3′-chloro-4′-{3-[(3R)-3-(dimethylamino)-1-pyrrolidinyl]propoxy}-1,1′-biphenyl-4-carbonitrile] | 41
CN(C)[C@@H]1CCN(CCCOc2c(F)cc(-c3ccc(C#N)cc3)cc2F)C1 [Example 172, 4′-{3-[(3R)-3-(dimethylamino)-1-pyrrolidinyl]propoxy}-3′,5′-difluoro-1,1′-biphenyl-4-carbonitrile] | 13
COc1cc(-c2ccc(C#N)cc2)ccc1OCCCN1CC[C@@H](N(C)C)C1 [Example 173, 4′-{3-[(3R)-3-(dimethylamino)-1-pyrrolidinyl]propoxy}-3′-methoxy-1,1′-biphenyl-4-carbonitrile] | 27
CN(C)[C@@H]1CCN(CCCOc2c(F)cc(-c3ccc(C#N)cc3)cc2Cl)C1 [Example 174, 3′-chloro-4′-{3-[(3R)-3-(dimethylamino)-1-pyrrolidinyl]propoxy}-5′-fluoro-1,1′-biphenyl-4-carbonitrile] | 14
N-((3R)-1-{3-[4-(cyclopropylcarbonyl)phenoxy]propyl}pyrrolidinyl)-4-isopropylbenzenesulfonamide [Example 67] | 2.9
N-{(3R)-1-[3-(4-acetylphenoxy)propyl]pyrrolidinyl}-4-(trifluoromethoxy)benzenesulfonamide [Example 73] | 6.4
